Consider nine compounds from US20220106289A1, “NLRP3 INHIBITORS” (INFLAZOME LIMITED, priority 2018, published 2022).

Where a name gives a salt, the structure may show the parent alone.

The target of test [1] is T1, NLRP3 (Homo sapiens, UniProt Q96P20). Nature of the test: THP-1 cells pyroptosis assay (LPS + nigericin, resazurin read-out). Also noted: Seed THP-1 cells (25,000 cells/well) containing 1.0 μg/ml LPS; host or cells: THP-1 cells. The following applies: NLRP3 inhibitory activity, 1 μg/ml LPS, 5 μM nigericin. The test is classed as cell-based. Put shortly:
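THP-1 cells in serum-free RPMI were primed with 1 μg/ml LPS and incubated 3 h at 37° C with compound, then given 5 μM nigericin for 1 h. After supernatant removal, viability was read by 100 μM resazurin over 1-2 h at 37° C.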
(Resazurin is reduced to fluorescent resorufin, in cell work by metabolically active cells.)

For test [2], the target named is T1, NLRP3. Nature of the test: Human whole blood IL-1β release assay (LPS + nigericin, AlphaLisa). It is filed as cell-based. Also noted: Human whole blood in Li-heparin tubes was obtained from healthy donors; from tissue; host or cells: human whole blood from healthy donors. The following applies: NLRP3 inhibitory activity, 1 μg/ml LPS, 10 μM nigericin, read-out: HWB IC50. As to the method: For systemic delivery, the ability to inhibit NLRP3 when the compounds are present within the bloodstream is of great importance. For this reason, the NLRP3 inhibitory activity of a number of compounds in human whole blood was investigated in accordance with the following protocol. Human whole blood in Li-heparin tubes was obtained from healthy donors from a volunteer donor panel. • 1. […] Incubate for 3 hrs at 37° C., 5% CO2 • 4. Add 10 μl nigericin (Sigma #N7143) (10 μM FAC) to all wells • 5. Incubate for 1 hr at 37° C., 5% CO2 • 6. At the end of the incubation period, spin plates at 300×g for 5 mins to pellet cells and remove 20 μl of supernatant and add to 96-well v-bottom plates for IL-1β analysis (note: these plates containing the supernatants can be stored at -80° C. to be analysed at a later date) • 7. IL-1β was measured according to the manufacturer protocol (Perkin Elmer-AlphaLisa IL-1 Kit A[…]-5000) • 8.
Background: In Alpha technology, singlet oxygen from a donor bead excites a nearby acceptor bead.

T1 sequence (Q96P20 whole entry): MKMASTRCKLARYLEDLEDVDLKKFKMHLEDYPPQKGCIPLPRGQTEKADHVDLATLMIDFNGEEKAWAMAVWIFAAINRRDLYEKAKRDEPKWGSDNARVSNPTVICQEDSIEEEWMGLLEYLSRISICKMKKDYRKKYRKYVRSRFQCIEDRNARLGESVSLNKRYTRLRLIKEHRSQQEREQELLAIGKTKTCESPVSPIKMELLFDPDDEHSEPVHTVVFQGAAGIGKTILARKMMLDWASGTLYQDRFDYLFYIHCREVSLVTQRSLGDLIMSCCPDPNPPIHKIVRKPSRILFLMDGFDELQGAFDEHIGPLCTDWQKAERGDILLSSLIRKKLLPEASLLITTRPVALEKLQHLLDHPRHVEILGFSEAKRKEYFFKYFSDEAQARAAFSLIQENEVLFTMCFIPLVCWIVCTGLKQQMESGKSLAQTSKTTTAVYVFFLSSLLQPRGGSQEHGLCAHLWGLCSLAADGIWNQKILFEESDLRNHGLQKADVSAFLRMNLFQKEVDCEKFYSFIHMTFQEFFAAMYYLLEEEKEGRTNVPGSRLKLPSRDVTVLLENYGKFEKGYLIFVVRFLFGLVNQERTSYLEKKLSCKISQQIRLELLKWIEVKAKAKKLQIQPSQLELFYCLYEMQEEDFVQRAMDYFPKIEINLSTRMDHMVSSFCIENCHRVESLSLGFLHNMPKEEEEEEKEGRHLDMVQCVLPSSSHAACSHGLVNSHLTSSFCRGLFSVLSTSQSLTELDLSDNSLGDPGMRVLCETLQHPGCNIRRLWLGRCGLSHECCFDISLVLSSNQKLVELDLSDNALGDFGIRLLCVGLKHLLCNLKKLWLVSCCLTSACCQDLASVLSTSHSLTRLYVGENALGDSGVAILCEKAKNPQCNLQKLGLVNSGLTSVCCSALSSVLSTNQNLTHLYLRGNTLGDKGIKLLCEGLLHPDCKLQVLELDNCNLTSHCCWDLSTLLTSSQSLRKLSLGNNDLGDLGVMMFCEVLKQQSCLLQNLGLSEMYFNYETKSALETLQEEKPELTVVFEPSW

What is called IC50 is the concentration that gives 50% inhibition. As for `CN(C)Cc1ccc(S(=O)(=O)NC(=O)Nc2c3c(cc4c2CCC4)CCC3)cc1` [Example 66, 4-((Dimethylamino)methyl)-N-((1,2,3,5,6,7-hexahydro-s-indacen-4-yl)carbamoyl)benzenesulfonamide, sodium salt], the IC50 in test [1] was less than 250 nM; in test [2], 250 to 500 nM.
The corresponding values for `O=C(Nc1c2c(cc3c1CCO3)CCC2)NS(=O)(=O)c1ccn(C2CC2)n1` [Example 67, 1-Cyclopropyl-N-((3,5,6,7-tetrahydro-2H-indeno[5,6-b]furan-4-yl)carbamoyl)-1H-pyrazole-3-sulfonamide] are less than 250 nM and 1000 to 5000 nM.
The corresponding values for `CC(C)c1cccc(C(C)C)c1NC(=O)NS(=O)(=O)c1cnn(C(C)C)c1` [Example 69, N-((2,6-Diisopropylphenyl)carbamoyl)-1-isopropyl-1H-pyrazole-4-sulfonamide] are 500 to 1000 nM and 1000 to 5000 nM.
On the same counts, the results for `CC(C)c1cc(C#N)cc(C(C)C)c1NC(=O)NS(=O)(=O)c1cc(C(C)(C)O)n(C)n1` [Example 71, N-((4-Cyano-2,6-diisopropylphenyl)carbamoyl)-5-(2-hydroxypropan-2-yl)-1-methyl-1H-pyrazole-3-sulfonamide] are 500 to 1000 nM and 1000 to 5000 nM.
As for `CC(C)c1cc(C#N)cc(C(C)C)c1NC(=O)NS(=O)(=O)c1ccn(C(C)C)n1` [Example 72, N-((4-Cyano-2,6-diisopropylphenyl)carbamoyl)-1-isopropyl-1H-pyrazole-3-sulfonamide], the IC50 fell in the range of 1000 to 5000 nM in test [1] and 5000 to 10000 nM in test [2].
On the same counts, the results for `CC(C)c1cc(F)cc(C(C)C)c1NC(=O)NS(=O)(=O)c1ccn(C(C)C)n1` [Example 77, N-((4-Fluoro-2,6-diisopropylphenyl)carbamoyl)-1-isopropyl-1H-pyrazole-3-sulfonamide, sodium salt] are 1000 to 5000 nM and 5000 to 10000 nM.
Turning to `COC(C)(C)c1cc(S(=O)(=O)NC(=O)Nc2c(C(C)C)cccc2C(C)C)nn1C` [Example 81, N-((2,6-Diisopropylphenyl)carbamoyl)-5-(2-methoxypropan-2-yl)-1-methyl-1H-pyrazole-3-sulfonamide], the IC50 in test [1] and in test [2] was 250 to 500 nM each time.
Turning to `COC(C)(C)c1cc(S(=O)(=O)NC(=O)Nc2c(C(C)C)cc(F)cc2C(C)C)nn1C` [Example 82, N-((4-Fluoro-2,6-diisopropylphenyl)carbamoyl)-5-(2-methoxypropan-2-yl)-1-methyl-1H-pyrazole-3-sulfonamide], the IC50 fell in the range of 250 to 500 nM in test [1] and 500 to 1000 nM in test [2].
The corresponding values for `Cn1nc(S(=O)(=O)NC(=O)Nc2c3c(cc4c2CCC4)CCC3)cc1CO` [Example 84, N-((1,2,3,5,6,7-Hexahydro-s-indacen-4-yl)carbamoyl)-5-(hydroxymethyl)-1-methyl-1H-pyrazole-3-sulfonamide] are 250 to 500 nM and 500 to 1000 nM.
